From patent US12208071B2, “Glucagon receptor antagonists” (LIGAND PHARMACEUTICALS INCORPORATED, priority 2018, dated 2025)
Like-named read-outs stand apart in the source and are kept apart here.

Experiment: Log P/D by shake-flask method (1-octanol/buffer, HPLC)
Assay type: physicochemical
Settings: for logD: 1-octanol/buffer
Method: First, a sample stock solution of Polymorph Form A (100 mmol/L in DMSO) was prepared. 20 μL each of sample DMSO stock solutions was added into 4 ml-vials, then dispensed into 990 μL of 1-octanol-saturated buffer at varied pH and 990 μL of buffer-saturated 1-octanol, vortexed for 3 min and shaken for 1 hr at […], then centrifuged at 2500 rpm for 2 min to get rid of bubbles in the solutions. Finally, buffer-layer sample and 1-octanol-layer sample were separated, and then buffer-layer sample and 1-octanol-layer sample was injected into HPLC, integrated the chromatography and calculated the sample concentrations ratio in both buffer and 1-octanol phase. The Log P/D result was obtained by following equation: […]
The Log P/D value of Polymorph Form A was acquired by shake-flask method using a HPLC system. Since the concentrations of Polymorph Form A in buffer layer are too low to analyze, based on the comparison of blank and standard solution (S/N=5), 0.05 μmol/L was used in buffer layer to calculate Log D.

logD (pH 1.5, read-out: Log D Rep.1): > 4.32 | logD (pH 7.4, read-out: Log D Rep.1): > 4.32 | logD (pH 1.0, read-out: Log D Rep.1): > 4.32 | logD (pH 2.0, read-out: Log D Rep.1): > 4.32 | logD (pH 3.0, read-out: Log D Rep.1): > 4.32 | logD (pH 4.0, read-out: Log D Rep.1): > 4.32 | logD (pH 11.0, read-out: Log D Rep.1): > 4.32 | logD (pH range of 1.0 to 11.0, read-out: Log D values): > 4.32 | Log D Average (pH 1.0): >4.32 | Log D Rep.2 (pH 1.0): >4.32 | Log D Average (pH 1.5): >4.32 | Log D Rep.2 (pH 1.5): >4.32 | Log D Average (pH 2.0): >4.32 | Log D Rep.2 (pH 2.0): >4.32 | Log D Average (pH 3.0): >4.32 | Log D Rep.2 (pH 3.0): >4.32 | Log D Average (pH 4.0): >4.32 | Log D Rep.2 (pH 4.0): >4.32 | Log D Average (pH 7.4): >4.32 | Log D Rep.2 (pH 7.4): >4.32 | Log D Average (pH 11.0): >4.32 | Log D Rep.2 (pH 11.0): >4.32
SMILES: Cc1cc(C)c(-c2ccc(NC(=O)[C@H](Cc3ccc(C(=O)NCCS(=O)(=O)[O-])cc3)c3ccc(-c4ccc(C(C)(C)C)cc4)cc3)cc2)c(C)c1.[Na+] [Polymorph Form A, Sodium (R)-2-(4-(2-(4′-(tert-butyl)-[1,1′-biphenyl]-4-yl)-3-oxo-3-((2′,4′,6′-trimethyl-[1,1′-biphenyl]-4-yl)amino)propyl)benzamido)ethane-1-sulfonate]
